Source: ChEMBL document CHEMBL1201862, “PubChem BioAssay data set” (2004)
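Growth conditions: 96-well plates. Treatment: test compound, 48 hours, 5 concentrations. Analysis: linear interpolation between bracketing concentrations; unreached endpoints set to highest concentration. Here, GI50 denotes the concentration required for 50% inhibition of growth.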 The source made the active and inactive calls. No stated cut-off is given here; in the data, active = GI50 up to about 1.1 µM and inactive = higher. Where a SMILES comes first, the peptide text is derived from it. [ ]: non-standard residue; d: D form. The star is where a group is joined. ξ: configuration not given here. ξF = NC(Cc1ccccc1)C(=O)O; Cbz = O=C(OCc1ccccc1)*; Aib = CC(C)(N)C(=O)O

Columns and labels:
Assay in all cases: growth of human tumour cells (NCI), 48 h
SW-620 = system: SW-620
NCI/ADR-RES = system: NCI/ADR-RES
HT-29 = system: HT-29
SNB-75 = system: SNB-75
OVCAR-3 = system: OVCAR-3
NCI-H23 = system: NCI-H23
NCI-H460 = system: NCI-H460
COLO 205 = system: COLO 205
RXF 393 = system: RXF 393
A549 = system: A549
CCRF-CEM = system: CCRF-CEM
OVCAR-5 = system: OVCAR-5
UACC-257 = system: UACC-257
SF-295 = system: SF-295
CAKI-1 = system: CAKI-1
SK-OV-3 = system: SK-OV-3
HOP-92 = system: HOP-92
RPMI-8226 = system: RPMI-8226
ACHN = system: ACHN
OVCAR-4 = system: OVCAR-4

Measured: GI50

CN(C)C(=S)SCc1ccccc1
inactive: SW-620 > 100 µM | NCI/ADR-RES > 100 µM | HT-29 > 100 µM | SNB-75 2.41 µM | OVCAR-3 > 100 µM | NCI-H23 > 100 µM | NCI-H460 > 100 µM | COLO 205 > 100 µM | RXF 393 3.85 µM | A549 > 100 µM | CCRF-CEM > 100 µM | OVCAR-5 > 100 µM | UACC-257 79.8 µM | SF-295 > 100 µM | CAKI-1 > 100 µM | SK-OV-3 > 100 µM | HOP-92 88.3 µM

C[N+](C)(N)c1nc(N)c(C#N)c(C#N)c1C#N
inactive: SW-620 > 10 µM | NCI/ADR-RES > 10 µM | HT-29 > 10 µM | SNB-75 > 10 µM | OVCAR-3 1.91 µM | NCI-H23 > 10 µM | NCI-H460 > 10 µM | RPMI-8226 > 10 µM | COLO 205 > 10 µM | ACHN > 10 µM | RXF 393 > 10 µM | A549 > 10 µM | CCRF-CEM > 10 µM | OVCAR-5 > 10 µM | SF-295 > 10 µM | CAKI-1 > 10 µM | SK-OV-3 > 10 µM | OVCAR-4 > 10 µM

CC1C/C(=C\c2ccc(O)c(O)c2)C(=O)/C(=C/c2ccc(O)c(O)c2)C1 (stereo unspecified)
inactive: SW-620 11.6 µM | NCI/ADR-RES 18.5 µM | HT-29 18 µM | SNB-75 4.73 µM | OVCAR-3 5.25 µM | NCI-H23 4.14 µM | NCI-H460 12.7 µM | COLO 205 16.9 µM | ACHN 8.71 µM | RXF 393 3.73 µM | A549 13.4 µM | CCRF-CEM 3.06 µM | OVCAR-5 17.3 µM | UACC-257 14.5 µM | SF-295 13.7 µM | CAKI-1 5.74 µM | SK-OV-3 18.1 µM | OVCAR-4 7.16 µM | HOP-92 6.18 µM

Cc1ccccc1NC(=O)CC(=O)N1N=C(N2c3ccccc3Sc3ccccc32)CC1c1ccccc1 (stereo unspecified)
inactive: SW-620 > 100 µM | HT-29 > 100 µM | SNB-75 > 100 µM | OVCAR-3 > 100 µM | NCI-H23 > 100 µM | NCI-H460 > 100 µM | RPMI-8226 > 100 µM | COLO 205 > 100 µM | ACHN > 100 µM | A549 > 100 µM | OVCAR-5 > 100 µM | UACC-257 > 100 µM | SF-295 > 100 µM | CAKI-1 > 100 µM | SK-OV-3 > 100 µM | OVCAR-4 > 100 µM | HOP-92 > 100 µM

Cc1cccc2c1Sc1ccccc1C2NC(=O)CN(C)C (stereo unspecified)
inactive: SW-620 > 100 µM | HT-29 69.2 µM | SNB-75 16 µM | NCI-H23 > 100 µM | NCI-H460 > 100 µM | RPMI-8226 77.8 µM | COLO 205 > 100 µM | ACHN 43.4 µM | RXF 393 53.6 µM | A549 > 100 µM | CCRF-CEM > 100 µM | OVCAR-5 > 100 µM | UACC-257 52.6 µM | SK-OV-3 > 100 µM | OVCAR-4 > 100 µM

Nc1nc(=S)[nH]c2nc3c(c(-c4ccccc4)c12)CCCC3
inactive: SW-620 > 100 µM | NCI/ADR-RES > 100 µM | HT-29 > 100 µM | SNB-75 34.8 µM | OVCAR-3 > 100 µM | NCI-H23 > 100 µM | NCI-H460 > 100 µM | RPMI-8226 > 100 µM | COLO 205 > 100 µM | ACHN > 100 µM | A549 > 100 µM | CCRF-CEM > 10 µM | OVCAR-5 > 100 µM | UACC-257 > 10 µM | SF-295 > 100 µM | CAKI-1 > 100 µM | SK-OV-3 > 100 µM | OVCAR-4 > 100 µM

COC1CCC(OS(C)(=O)=O)CO1 (stereo unspecified)
inactive: HT-29 > 100 µM | SNB-75 60.5 µM | OVCAR-3 > 100 µM | NCI-H23 > 100 µM | NCI-H460 > 100 µM | RPMI-8226 26.2 µM | COLO 205 > 100 µM | ACHN > 100 µM | RXF 393 > 100 µM | CCRF-CEM 22.5 µM | OVCAR-5 42.2 µM | UACC-257 > 100 µM | SF-295 > 100 µM | SK-OV-3 > 100 µM | OVCAR-4 > 100 µM | HOP-92 > 100 µM

CCSc1ncnc2c(C3OC(CO)C(O)C3O)nsc12 (stereo unspecified)
inactive: SW-620 > 100 µM | NCI/ADR-RES > 100 µM | HT-29 > 100 µM | SNB-75 > 100 µM | OVCAR-3 > 100 µM | COLO 205 > 100 µM | RXF 393 > 100 µM | A549 > 100 µM | CCRF-CEM > 100 µM | OVCAR-5 > 100 µM | SF-295 > 100 µM | CAKI-1 > 100 µM | SK-OV-3 > 100 µM | OVCAR-4 > 100 µM | HOP-92 > 100 µM

COc1ccc(NC2=NCCO2)c2ccccc12
inactive: SW-620 > 10 µM | NCI/ADR-RES > 10 µM | HT-29 > 10 µM | SNB-75 > 10 µM | OVCAR-3 > 10 µM | NCI-H460 > 10 µM | RPMI-8226 > 10 µM | COLO 205 > 10 µM | ACHN > 10 µM | RXF 393 > 10 µM | A549 > 10 µM | CCRF-CEM > 10 µM | OVCAR-5 > 10 µM | SF-295 > 10 µM | CAKI-1 > 10 µM | SK-OV-3 > 10 µM | OVCAR-4 > 10 µM

NC(=O)OCC1=C(COC(N)=O)C(=O)c2c(O)ccc(O)c2C1=O
inactive: SW-620 61.1 µM | HT-29 > 100 µM | SNB-75 > 100 µM | OVCAR-3 > 100 µM | NCI-H23 > 100 µM | RPMI-8226 > 100 µM | COLO 205 58.7 µM | ACHN > 100 µM | A549 > 100 µM | CCRF-CEM 44.7 µM | OVCAR-5 > 100 µM | UACC-257 > 100 µM | SF-295 > 100 µM | CAKI-1 > 100 µM | SK-OV-3 > 100 µM | OVCAR-4 > 100 µM | HOP-92 > 100 µM

COc1ccccc1-c1cc(O)c2c(C)cc(C)nc2n1
inactive: SW-620 61.7 µM | NCI/ADR-RES 54.7 µM | HT-29 56.8 µM | NCI-H23 56.1 µM | RPMI-8226 38.4 µM | COLO 205 36.1 µM | ACHN 46.3 µM | RXF 393 63.7 µM | A549 59.7 µM | CCRF-CEM 47.9 µM | OVCAR-5 > 100 µM | UACC-257 50.5 µM | CAKI-1 40.3 µM | SK-OV-3 > 100 µM | OVCAR-4 56.1 µM | HOP-92 31.8 µM

COC(=O)C(C)(C)NC(=O)C(Cc1ccccc1)NC(=O)C(C)(C)NC(=O)OCc1ccccc1 (stereo unspecified) (Cbz-[Aib]-[ξF]-[Aib]-OMe)
inactive: SW-620 > 100 µM | NCI/ADR-RES > 100 µM | HT-29 > 100 µM | OVCAR-3 > 100 µM | NCI-H460 > 100 µM | RPMI-8226 > 100 µM | COLO 205 > 100 µM | ACHN > 100 µM | A549 > 100 µM | CCRF-CEM > 100 µM | OVCAR-5 > 100 µM | UACC-257 > 100 µM | SF-295 > 100 µM | CAKI-1 > 100 µM | SK-OV-3 > 100 µM | OVCAR-4 > 100 µM
